Results as given in the NIST ThermoML archive (doi:10.1021/je800463k).

Assay: mn = molality of the nth substance listed, in mol/kg
Details: 101 kPa, Liquid; for mass density: Pycnometric method; for electrical conductivity: Frequency=0.001 MHz, Alternating current cell with electrodes; for speed of sound: Frequency=2 MHz

O=[N+]([O-])[O-].O=[N+]([O-])[O-].[Mg+2] [magnesium nitrate] + CO
Details	electrical conductivity [S/m]	mass density [kg/m3]	speed of sound [m/s]	viscosity [mPa·s]
301.25 K, m1 = 0.4024	–	827.04	–	–
301.3 K, m1 = 0.0082	–	785.69	–	–
301.4 K, m1 = 0.2776	–	814.59	–	–
301.4 K, m1 = 1.71	–	952.09	–	–
302.05 K, m1 = 0.0545	–	790.26	–	–
302.2 K, m1 = 0.4555	–	830.9	–	–
302.25 K, m1 = 0.782	–	868.46	–	–
302.45 K, m1 = 0.1047	–	796.51	–	–
302.55 K, m1 = 1.004	–	883.47	–	–
302.7 K, m1 = 0.6276	–	848.25	–	–
302.7 K, m1 = 1.259	–	910.86	–	–
302.85 K, m1 = 1.875	–	961.69	–	–
303.15 K, m1 = 0.0082	0.1462	783.99	1091.9	0.5215
303.15 K, m1 = 0.0545	0.4108	–	1098.1	0.5545
303.15 K, m1 = 0.0667	0.4481	–	1096.9	0.5716
303.15 K, m1 = 0.1047	0.5889	–	1102.5	0.5909
303.15 K, m1 = 0.2776	1.123	–	1121.5	0.6836
303.15 K, m1 = 0.4024	1.41	–	1132.5	0.7943
303.15 K, m1 = 0.4555	1.489	–	1139.1	0.8264
303.15 K, m1 = 0.6276	1.775	–	1155.5	1.05
303.15 K, m1 = 0.782	1.979	–	1172.9	1.177
303.15 K, m1 = 0.881	2.037	–	1179.3	1.184
303.15 K, m1 = 0.9116	2.054	–	1182.3	1.245
303.15 K, m1 = 1.004	2.136	–	1196.9	1.354
303.15 K, m1 = 1.259	2.213	–	1219.1	1.875
303.15 K, m1 = 1.492	2.223	–	1243	2.267
303.15 K, m1 = 1.71	2.246	–	1263.7	2.73
303.15 K, m1 = 1.875	2.217	–	1272.7	3.138
303.25 K, m1 = 0.4024	–	825.26	–	–
303.4 K, m1 = 0.2776	–	812.83	–	–
303.4 K, m1 = 1.492	–	932.03	–	–
303.75 K, m1 = 0.0545	–	788.57	–	–
303.85 K, m1 = 0.881	–	868.76	–	–
304 K, m1 = 0.0082	–	782.31	–	–
304.1 K, m1 = 0.782	–	866.62	–	–
304.2 K, m1 = 0.4555	–	829.11	–	–
304.25 K, m1 = 0.1047	–	794.8	–	–
304.35 K, m1 = 0.0667	–	789.8	–	–
304.65 K, m1 = 0.6276	–	846.53	–	–
304.65 K, m1 = 1.004	–	881.56	–	–
